Where two headings read alike, the source gives them in different places.
What was measured:
AR transactivation [1] = settings: previous reports; cited from earlier work
AR transactivation [2] = assay: AR transactivation with TSA, MMTV-LUC in PC3-AR2 cells; format: cell-based
AR protein levels = assay: AR protein (Western blot) and AR mRNA (Northern blot) levels; format: cell-based
AR protein stability = assay: Pulse-chase labeling of AR in COS-1 cells; format: cell-based; settings: 10 nM DHT
Description: 30. […] The cells were harvested for Western blot analysis. […] Western blot analysis was performed and AR and PTEN were detected by AR antibody or PTEN antibody. (C) PTEN-C1 cells were treated with 4 μg/ml Dox in 10% CDS media for 48 h. Total RNA was prepared and Northern blot analysis was performed using [^32P]-dCTP-labeled AR (aa, 1-389) as a probe. (D) COS-1 cells were transfected with AR along with pCDNA3 or PTEN in 10% CDS media for 16 h. […] The cell extracts were immunoprecipitated with AR antibody and subjected to SDS-PAGE followed by autoradiography. Data were from three identical results. (E) COS-1 cells were transfected with AR along with pCDNA3 or dAkt in 10% CDS media for 16 h, pulsed with [^35S]-methionine for 45 min, and then harvested at different chase times as indicated. LY294002 (20 μM) was added 2 h before pulsing with [^35S]-methionine.
317. Pulse-chase experiments were performed as described (Lo et al. (1999) Nat Cell Biol 1, 472-8) with some modifications. Briefly, COS-1 cells were transfected with pSG5-AR in combination with pCDNA3 or pCDNA3 PTEN in 10% CDS media for […]. Cells were grown under serum starvation conditions for 2 h in methionine/cysteine-deficient medium, and then the cells were pulsed for 45 min with 200 μCi/ml [^35S]-methionine/cysteine (NEN). […]

PSA mRNA expression = PSA mRNA expression in LNCaP cells, Northern blot; format: cell-based; settings: presence of androgen
AR, ER, GR, PR, RXR = assay: GST pull-down assay of PTEN with nuclear receptors; format: binding; settings: presence or absence of ligand
Description: 27. […] (A) GST or GST-PTEN incubation with the [^35S]-labeled AR, ER, or RXR for 2 h in the presence or absence of the ligand. The bound proteins were analyzed by SDS-PAGE, followed by autoradiography. (B) Representation of PTEN deleted mutants. PTP domain, protein tyrosine phosphates domain; Ty-p, tyrosine phosphorylation domain. (C) [^35S]-labeled AR was incubated with different PTEN deleted mutants. The nearly equivalent aliquots of PTEN deleted mutants used are shown in the right panel. (D) Representation of AR deleted mutants. (E) GST or GST-PTEN was incubated with different AR deleted mutants. (F) The His-AR-N-DBD was incubated with [^35S]-PTEN or [^35S]-PTEN C124S for 2 h. The bound protein was analyzed by the SDS-PAGE, followed by autoradiography.
313. GST fusion proteins were purified as described by the manufacturer (Amersham Pharmacia). The purified GST-proteins were resuspended with 100 μl of interaction buffer (20 mM Tris-HCl/pH 8.0, 60 mM NaCl, 1 mM EDTA, 6 mM MgCl2, 1 mM Dithiothreitol, 8% Glycerol, 0.05% (v/v) NP-40, 1 mM PMSF, and proteinase inhibitors) and mixed with 5 μl of [^35S]-labeled TNT proteins in the presence or absence of 1 μM ligands on a rotating disk at 4° C. for 2 h. After extensive washes with NENT buffer, the bound proteins were separated on an 8% SDS-polyacrylamide gel and visualized by autoradiography.

AR transactivation [3] = assay: AR transactivation, (ARE)4-luc in CWR22 cells; format: cell-based, human
Description: (§1) 31. […] (D) The LNCaP cells were transfected with plasmids as indicated for 16 h, and the medium was changed to 0.1% CDS media for 2 days. The cell apoptosis was determined by TUNEL assay (E) The LNCaP cells were transfected with plasmids as indicated for 16 h, harvested, and the cell extracts were subjected to SDS-PAGE. The Akt activity was determined by Western blotting using phospho(S473)-Akt antibody. (F) The U87MG cells were transfected with plasmids as indicated for 16 h, and the medium was changed 0.1% CDS media for 2 days. The cell apoptosis was determined by TUNEL assay. Data for luciferase activity and apoptosis are means±s.d. from three independent experiments.
312. […] The cells were lysed and the luciferase activity was detected by the dual luciferase assay according to standard procedures.

U87MG cells = assay: PTEN-induced apoptosis in AR-negative U87MG cells, TUNEL assay; format: cell-based
Description: as §1
311. For the apoptosis assay, the cells were transfected with plasmids for 24 h and grown in 0.1% charcol-stripped serum (CDS) media. The apoptosis was determined 2 days after transfection using the TUNEL assay according to the standard procedures (Oncogene). At least 200 cells were scored for each sample and data are means±s.d. from three independent experiments.

AR transactivation [4] = assay: AR transactivation, MMTV-luc / (ARE)4-luc luciferase reporter assay; format: cell-based; settings: 10 nM DHT; for Repression of AR transactivation: MMTV-luc
LNCaP cells = assay: PTEN-induced apoptosis in LNCaP cells, TUNEL assay; format: cell-based; settings: 0.1% CDS media 2 days
AR transactivation [5] = assay: AR transactivation with Smad3/Smad4, CAT reporters in PC3-AR2, PC-3 and LNCaP cells; format: cell-based, human; settings: PC3-AR2
Description: 32. […] LNCaP cell were transfected with Smad3 or Smad4 expression vector instead of PC-3(AR)2 cells in experiments otherwise identical with those in A (B), PC-3(AR)2 cells stably transfected with AR were over-expressed with the indicated amounts of Smad3 or Smad4 or SRC-1. 3 μg of MMTV-CAT was used as a reporter plasmid in all experiments. All values represent the averages±SD of four independent experiments. […] PSA expression level was determined by Northern blotting. The probe was obtained from exon 1 of the PSA gene and labeled with [α-^32P] dCTP. A β-actin probe was used as a control for equivalent mRNA loading. (C, Table 1) The RNA samples from (A) were reverse transcribed to cDNAs and all of the samples were subjected to real-time CR using an ABI Prism 7700 Sequence Detection System (Perkin-Elmer Applied bio systems). PCR was performed using the SYBR Green PCR Core Reagents kit (Perkin-Elmer Applied Bio systems). PSA and β-actin forward, reverse primers concentrations were 2.5 μM. To reduce variability between replicates, PCR premixes which contained all reagents except for total RNA were prepared and aliquoted into 1.5 ml microfuge tubes. Specific PCR amplification products were detected by the fluorescent double-stranded DNA-binding dye SYBR Green core reagent kit. […]
333. […] The CAT activity was visualized and quantitated by STORM 840 (Molecular Dynamics). […]

Compound: CC(/C=C/C(=O)NO)=C\[C@@H](C)C(=O)c1ccc(N(C)C)cc1 [TSA, trichostatin A]
- Effect on androgen-mediated AR transactivation (AR transactivation [1]): induce the androgen-mediated AR transactivation
- Effect on Smad3/Smad4-suppressed AR transactivation (AR transactivation [2]): reverse the Smad3/Smad4-suppressed AR transactivation in a dose-dependent manner
- Effect on AR transactivation (AR transactivation [2]; DHT, increasing doses): enhance AR transactivation in a dose-dependent manner
- Effect on Smad3/Smad4-suppressed AR transactivation (AR transactivation [2]; listed as trichostatin A): reverse Smad3/Smad4-repressed AR transactivation

Compound: PTEN: tumor suppressor, phosphatase and tensin homolog deleted on chromosome ten
- AR protein levels (AR protein levels; COS-1 cells, transient transfection): reduce AR protein levels
- AR mRNA levels normalized by β-actin (AR protein levels; LNCaP PTEN-C1, Dox-induced PTEN): remained relatively unchanged
- Endogenous AR protein levels (AR protein levels; stable LNCaP clones, 4 μg/ml Dox 48 h, 10 nM DHT): reduced endogenous AR protein levels
- Reduction of the half-life of newly synthesized [35S]-AR (AR protein stability): 4 to 5 fold
- Effect on androgen-induced PSA mRNA expression (PSA mRNA expression): repressed
- Binding to nuclear receptors (AR, ER, GR, PR, RXR): binds preferentially to AR and the ER
- Effect on AR transactivation (AR transactivation [3]): dramatically suppressed AR transactivation
- Apoptosis (U87MG cells): still able to induce apoptosis
- Repression of AR transactivation (AR transactivation [4]; AR negative DU145 and PC-3): less than 2 fold
- Repression of AR transactivation (AR transactivation [4]; AR-positive LNCaP cells): 4 fold
- Effect on AR transactivation (AR transactivation [4]; LNCaP, MMTV-luc and (ARE)4-luc): suppressed AR transactivation in both luciferase reporters at a similar level
- Apoptosis (LNCaP cells): induce apoptosis markedly

Compound: SRC-1: steroid receptor coactivator-1
- Effect on AR transactivation in the presence of Smad3 or Smad4 (AR transactivation [5]): increase AR transactivation
